{"source": "patent US11491134B2", "about": "“Composition for inhibiting skin cell proliferation and/or anti-inflammation method for inhibiting skin cell proliferation and/or anti-inflammation and method for treating skin diseases and/or inflammatory diseases” (Industrial Technology Research Institute, priority 2019, dated 2022)", "system": "macrophages, RAW264.7 cells", "test": "Inhibition rate on inflammation (anti-inflammatory activity): nitric oxide, Griess reagent, LPS-treated macrophages", "assay_type": "cell-based", "conditions": "Mus musculus; for inhibition at 1.5625 µM: luteolin 1.5625 μM/0.45 μg/mL; for inhibition at 3.125 µM: luteolin 3.125 μM/0.89 μg/mL; for inhibition at 6.25 µM: luteolin 6.25 μM/1.79 μg/mL; for inhibition at 12.5 µM: luteolin 12.5 μM/3.58 μg/mL; for inhibition at 25 µM: luteolin 25 μM/7.16 μg/mL; for inhibition at 50 µM: luteolin 50 μM/14.31 μg/mL; for inhibition at 0.3125 µM: luteolin 0.3125 μM/0.09 μg/mL; for inhibition at 0.625 µM: luteolin 0.625 μM/0.18 μg/mL; for inhibition at 1.25 µM: luteolin 1.25 μM/0.36 μg/mL; for inhibition at 2.5 µM: luteolin 2.5 μM/0.72 μg/mL; for inhibition at 5 µM: luteolin 5 μM/1.43 μg/mL; for inhibition at 100 µM: luteolin 100 μM/28.62 μg/mL", "experimental": "Dimethyl sulfoxide (DMSO) was used as a solvent to prepare apigenin test samples with different concentrations and luteolin test samples with different concentrations. 9 batches of experiments were performed, which respectively were Batch 1 to Batch 9. There were 6 independent experiments in each batch of experiments. In each independent experiment, inhibition rate of an apigenin test sample with a specific concentration on inflammation and inhibition rate of a luteolin test sample with a specific concentration on inflammation were determined, and inhibition rate of a combination of an apigenin test sample with the said specific concentration and a luteolin test sample with the said specific concentration on inflammation was determined. Between the independent experiments, concentrations of apigenin test samples used were different, and concentrations of luteolin test samples used were also different, however, mole ratios or weight ratios of apigenin test samples to luteolin test samples were the same. Moreover, between the batches of experiments, mole ratios or weight ratios of apigenin test samples to luteolin test samples were different. 5×10^4 macrophages, RAW264.7 cells, were inoculated in a 96-well culture plate and then placed in a 37° C. and 5% CO2 incubator for culturing overnight. After overnight culture, the supernatant was removed, and lipopolysaccharide (LPS) (50 ng/mL) and a test sample was added to the cells (refer to Table 2, and the cells of the induced group were treated with lipopolysaccharide and dimethyl sulfoxide while the cells of the control group were only treated with dimethyl sulfoxide) for reaction for 24 hours. Thereafter, the supernatant of each well in the culture plate was transferred to a new culture plate and reacted with Griess reagent (Promega, Cat. No. G2930), respectively, and then the absorbance of each well of the culture plate was determined at 540 nm by a continuous wavelength microplate reader to evaluate the content of nitric oxide (NO), and anti-inflammatory activity was calculated through the following formula: Anti-inflammation=(Induced group540 nm−Experimental group540 nm)/(Induced group540 nm−Control group540 nm) In this experiment, the synergistic effects of apigenin and luteolin were evaluated by CalcuSyn software (BIOSOFT). CalcuSyn software is an analysis software which is commonly used to analyze the drug dosage effect of single drug and multiple drugs at present. CalcuSyn software can be used to analyze drug complex interactions and automatically quantify various phenomena such as synergism and inhibition. CalcuSyn software can process the data of individual drugs and combination drugs with constant-ratio or on-constant-ratio, and can evaluate the interaction of combination drugs by the combination index (CI) (Chou and Talalay, Adv. Enzyme Regul. 22:27-55 (1984) calculated by CalcuSyn software. Calculation formula for the combination index is shown in the following: Combination index=C1/IC1+C2/IC2 C1 and C2 are the respective concentrations of the first compound and the second compound at which the activity of achieving a specific physiological or medical purpose is 50% (or 75%, or 90%) when the first compound and the second compound are analyzed in combination; IC1 and IC2 are the respective concentrations at which the activity of achieving a specific physiological or medical purpose of the first compound and the second compound is 50% (or 75%, or 90%) when the first compound and the second compound are independently analyzed. […]"}
{"smiles": "O=c1cc(-c2ccc(O)c(O)c2)oc2cc(O)cc(O)c12", "note": "[Luteolin, luteolin]", "values": [{"measurement": "inhibition at 1.5625 µM", "setting": "RAW264.7, Batch 1", "value": 0.1, "unit": "%"}, {"measurement": "inhibition at 3.125 µM", "setting": "RAW264.7, Batch 1", "value": 21.4, "unit": "%"}, {"measurement": "inhibition at 6.25 µM", "setting": "RAW264.7, Batch 1", "value": 37.2, "unit": "%"}, {"measurement": "inhibition at 12.5 µM", "setting": "RAW264.7, Batch 1", "value": 56.3, "unit": "%"}, {"measurement": "inhibition at 25 µM", "setting": "RAW264.7, Batch 1", "value": 84.1, "unit": "%"}, {"measurement": "inhibition at 50 µM", "setting": "RAW264.7, Batch 1", "value": 99.9, "unit": "%"}, {"measurement": "inhibition at 0.78 µM", "setting": "RAW264.7, Batch 2, luteolin 0.78 μM/0.22 μg/mL", "value": 0.1, "unit": "%"}, {"measurement": "inhibition at 1.5625 µM", "setting": "RAW264.7, Batch 2", "value": 5.8, "unit": "%"}, {"measurement": "inhibition at 3.125 µM", "setting": "RAW264.7, Batch 2", "value": 15.4, "unit": "%"}, {"measurement": "inhibition at 6.25 µM", "setting": "RAW264.7, Batch 2", "value": 29.9, "unit": "%"}, {"measurement": "inhibition at 12.5 µM", "setting": "RAW264.7, Batch 2", "value": 48.8, "unit": "%"}, {"measurement": "inhibition at 25 µM", "setting": "RAW264.7, Batch 2", "value": 75.7, "unit": "%"}, {"measurement": "inhibition at 0.3125 µM", "setting": "RAW264.7, Batch 3", "value": 0.1, "unit": "%"}, {"measurement": "inhibition at 0.625 µM", "setting": "RAW264.7, Batch 3", "value": 0.1, "unit": "%"}, {"measurement": "inhibition at 1.25 µM", "setting": "RAW264.7, Batch 3", "value": 0.1, "unit": "%"}, {"measurement": "inhibition at 2.5 µM", "setting": "RAW264.7, Batch 3", "value": 5.1, "unit": "%"}, {"measurement": "inhibition at 5 µM", "setting": "RAW264.7, Batch 3", "value": 49, "unit": "%"}, {"measurement": "inhibition at 10 µM", "setting": "RAW264.7, Batch 3, luteolin 10 μM/2.86 μg/mL", "value": 80.3, "unit": "%"}, {"measurement": "inhibition at 0.15625 µM", "setting": "RAW264.7, Batch 4, luteolin 0.15625 μM/0.04 μg/mL", "value": 0.1, "unit": "%"}, {"measurement": "inhibition at 0.3125 µM", "setting": "RAW264.7, Batch 4", "value": 0.1, "unit": "%"}, {"measurement": "inhibition at 0.625 µM", "setting": "RAW264.7, Batch 4", "value": 0.1, "unit": "%"}, {"measurement": "inhibition at 1.25 µM", "setting": "RAW264.7, Batch 4", "value": 0.1, "unit": "%"}, {"measurement": "inhibition at 2.5 µM", "setting": "RAW264.7, Batch 4", "value": 0.1, "unit": "%"}, {"measurement": "inhibition at 5 µM", "setting": "RAW264.7, Batch 4", "value": 35.9, "unit": "%"}, {"measurement": "inhibition at 0.078 µM", "setting": "RAW264.7, Batch 5, luteolin 0.078 μM/0.02 μg/mL", "value": 0.1, "unit": "%"}, {"measurement": "inhibition at 0.156 µM", "setting": "RAW264.7, Batch 5, luteolin 0.156 μM/0.04 μg/mL", "value": 0.1, "unit": "%"}, {"measurement": "inhibition at 0.3125 µM", "setting": "RAW264.7, Batch 5", "value": 9.8, "unit": "%"}, {"measurement": "inhibition at 0.625 µM", "setting": "RAW264.7, Batch 5", "value": 3.1, "unit": "%"}, {"measurement": "inhibition at 1.25 µM", "setting": "RAW264.7, Batch 5", "value": 0.5, "unit": "%"}, {"measurement": "inhibition at 2.5 µM", "setting": "RAW264.7, Batch 5", "value": 16.1, "unit": "%"}, {"measurement": "inhibition at 3.125 µM", "setting": "RAW264.7, Batch 6", "value": 11.1, "unit": "%"}, {"measurement": "inhibition at 6.25 µM", "setting": "RAW264.7, Batch 6", "value": 40.8, "unit": "%"}, {"measurement": "inhibition at 12.5 µM", "setting": "RAW264.7, Batch 6", "value": 67.1, "unit": "%"}, {"measurement": "inhibition at 25 µM", "setting": "RAW264.7, Batch 6", "value": 89.6, "unit": "%"}, {"measurement": "inhibition at 50 µM", "setting": "RAW264.7, Batch 6", "value": 99.9, "unit": "%"}, {"measurement": "inhibition at 100 µM", "setting": "RAW264.7, Batch 6", "value": 99.9, "unit": "%"}, {"measurement": "inhibition at 3.125 µM", "setting": "RAW264.7, Batch 7", "value": 13.3, "unit": "%"}, {"measurement": "inhibition at 6.25 µM", "setting": "RAW264.7, Batch 7", "value": 43.9, "unit": "%"}, {"measurement": "inhibition at 12.5 µM", "setting": "RAW264.7, Batch 7", "value": 70.2, "unit": "%"}, {"measurement": "inhibition at 25 µM", "setting": "RAW264.7, Batch 7", "value": 89.3, "unit": "%"}, {"measurement": "inhibition at 50 µM", "setting": "RAW264.7, Batch 7", "value": 99.9, "unit": "%"}, {"measurement": "inhibition at 100 µM", "setting": "RAW264.7, Batch 7", "value": 99.9, "unit": "%"}, {"measurement": "inhibition at 3.125 µM", "setting": "RAW264.7, Batch 8", "value": 8.9, "unit": "%"}, {"measurement": "inhibition at 6.25 µM", "setting": "RAW264.7, Batch 8", "value": 34.4, "unit": "%"}, {"measurement": "inhibition at 12.5 µM", "setting": "RAW264.7, Batch 8", "value": 67.9, "unit": "%"}, {"measurement": "inhibition at 25 µM", "setting": "RAW264.7, Batch 8", "value": 90.4, "unit": "%"}, {"measurement": "inhibition at 50 µM", "setting": "RAW264.7, Batch 8", "value": 99.9, "unit": "%"}, {"measurement": "inhibition at 100 µM", "setting": "RAW264.7, Batch 8", "value": 99.9, "unit": "%"}, {"measurement": "inhibition at 1.5625 µM", "setting": "RAW264.7, Batch 9", "value": 4.9, "unit": "%"}, {"measurement": "inhibition at 3.125 µM", "setting": "RAW264.7, Batch 9", "value": 26.5, "unit": "%"}, {"measurement": "inhibition at 6.25 µM", "setting": "RAW264.7, Batch 9", "value": 67, "unit": "%"}, {"measurement": "inhibition at 12.5 µM", "setting": "RAW264.7, Batch 9", "value": 87, "unit": "%"}, {"measurement": "inhibition at 25 µM", "setting": "RAW264.7, Batch 9", "value": 94.2, "unit": "%"}, {"measurement": "inhibition at 50 µM", "setting": "RAW264.7, Batch 9", "value": 98.3, "unit": "%"}]}
